Experimental data reported in patent EP2667887B1, “PHARMACEUTICAL COMPOSITION COMPRISING THE PEPTIDE GLU-ASP-GLY AND USE FOR TREATING HELICOBACTER PYLORI INDUCED GASTRODUODENAL DISEASES” («Garmonia», Ltd., priority 2011, dated 2012).

Key:
[1] = test system: human gastric epithelium cells SGC7901; assay: Effect on Helicobacter pylori-induced mitochondrial mechanisms of apoptosis in gastric epitheliocytes (mito-GFP confocal microscopy); format: cell-based; conditions: Klacid 500 ng/mL as positive control, same conditions as peptide 10 µM
Experimental: To evaluate the biological activity and effects of peptide H-Glu-Asp-Gly-OH on mitochondrial mechanisms of apoptosis in gastric epitheliocytes, induced by Helicobacter pylori germs, human gastric epithelium cells SGC7901 were studied. The cells were cultivated at 37°C in a damp incubation medium containing 50 mL/L CO2 in DMEM (Dulbecco's Modified Eagle's Medium, ICN Biomedicals) and 10% calf embryonic serum. A preliminary separation of cells for passaging was carried out in the ratio of 1:3-1:5 using a mixture of 0.125% trypsin, 0.02M EDTA (ethylenediaminetetraacetic acid), 0.02% glucose dissolved in a phosphate buffer. The cells were placed on a 24-well plate in the amount of 10^6 cells per well. The cells were passaged in a cultivation medium for 5 days and then taken for study.
On the 5th day after the beginning of cell passaging the peptide H-Glu-Asp-Gly-OH in the dose of 10 µM was administered in the cultivation medium, and in 30 minutes of incubation the cells were taken for study. Klacid antibiotic (clarithromycin, Abbott) in the dose of 500 ng/mL was administered to the cultures in the same conditions as positive control. […]
The status of isolated mitochondria was evaluated using immunofluorescent confocal laser microscopy. […]
Confocal microscopy of mitochondria with optical density evaluation was performed in an inverted confocal microscope Olympus Fluoview CM FV300-IX70 using an apochromatic lens 606 UPlan (Olympus). A 488 nm excitation wave of argon laser was used in each chamber to specify mito-GFP fluorescence that verifies the structure of mitochondria.

[2] = test system: modeled ulcer; assay: Morphology study of the induced gastric ulcer (cysteamine-HCL + Helicobacter pylori); format: in vivo, Sprague Dawley rats; conditions: treatment daily for 5 days, Klacid 10 mg intramuscularly
Experimental: The study was carried out on 90 male Sprague Dawley rats (180-220 g) randomly subdivided into 9 groups (10 animals per group): • Group 1 - intact rats (saline solution) • Group 2 - modeled ulcer + saline solution • Group 3 (6 subgroups) - modeled ulcer + H-Glu-Asp-Gly-OH • Group 4 - modeled ulcer + Klacid antibiotic
Ulcer was modeled by three-time administration (in 4 hours) in the rat stomach of cysteamine-HCL (Aldrich, Milwannee, WI) by means of a probe in the dose of 25 mg per 100 g of body weight. The ulcer, approximately 28 mm^2 in size, appeared at the boundary between antral and fundal segments of the stomach 12 hours after the last administration. Simultaneously with the first administration of cysteamine-HCL a Helicobacter pylori culture (Curtin Matheson Scientific Inc, strain Cag J117, 100 microbial cells) was administered in the rat stomach through the same probe.
A means on the basis of the pharmaceutical composition comprising the studied peptide H-Glu-Asp-Gly-OH was administered subcutaneously in the dose of 1 µg per kg of animal body weight (group 3a), 2,5 µg per kg of body weight (group 3b) and 10 µg per kg of body weight (group 3c) in 0,5 ml of saline solution daily, for 5 days from the occurrence of the stomach ulcer.
The means on the basis of the pharmaceutical composition comprising the studied peptide H-Glu-Asp-Gly-OH was administered intragastrically (through a probe) in the dose of 1 µg per kg of animal body weight (group 3d), 2,5 µg per kg of body weight (group 3e) and 10 µg per kg of body weight (group 3f) in 0,5 ml of saline solution daily, for 5 days from the occurrence of the stomach ulcer.
Antibiotic Klacid (clarithromycin, Abbott) was administered intramuscularly in the dose of 10 mg in 1 ml of saline solution daily for 5 days from the occurrence of the stomach ulcer.
Material for study was taken from ulcer edge on the 7th day (for western blot assay and polymerase chain reaction in real time - RT-PCR), as well as on the 7th, 15th and 21st day for morphology study and confocal microscopy.
For a morphology study, pieces of gastric mucous membrane from the ulcer edge were fixed in 10% neutral formalin (pH 7.2), then the material was dried out in a Leica TP1020 automatic station (Leica) and covered with paraffin. 5 µm thick paraffin slices were placed on object plates covered with a poly-L-lysine film (Sigma). For a visual study the slices were stained with hematoxylin and eosin, as well as with picrofuxin by the van Gison method.

CC[C@H]1OC(=O)[C@H](C)[C@@H](O[C@H]2C[C@@](C)(OC)[C@@H](O)[C@H](C)O2)[C@H](C)[C@@H](O[C@@H]2O[C@H](C)C[C@H](N(C)C)[C@H]2O)[C@](C)(OC)C[C@@H](C)C(=O)[C@H](C)[C@@H](O)[C@]1(C)O [Klacid, clarithromycin]
biological activity (prevention of Helicobacter pylori-induced mitochondrial apoptosis disorder) relative to the peptide composition [1]: comparable in terms of efficiency | ulcer pathomorphosis, 7th day ([2]; 7th day after ulcer induction, peptide 1, 2,5, 10 µg/kg subcutaneously or intragastrically): largely similar to the changes in Group 3 | ulcer pathomorphosis, 15th day ([2]; 15th day after ulcer induction, peptide 1, 2,5, 10 µg/kg subcutaneously or intragastrically): The same changes were observed | ulcer pathomorphosis, 21st day ([2]; 21st day after ulcer induction, peptide both methods of administration and three dosages): caused the same changes
